Each block holds one compound with its values, some of them ahead of it.
Legend:
[1] = target: T1, cloned human and rat GPR-14 (UniProt Q9UKP6); experiment: Radioligand binding ([125I] h-U-II) to HEK-293 cell membranes containing GPR-14; conditions: HEK-293 membranes, 200 pM [125I] h-U-II; human or rat receptor not specified
T1 sequence (Q9UKP6 1-389): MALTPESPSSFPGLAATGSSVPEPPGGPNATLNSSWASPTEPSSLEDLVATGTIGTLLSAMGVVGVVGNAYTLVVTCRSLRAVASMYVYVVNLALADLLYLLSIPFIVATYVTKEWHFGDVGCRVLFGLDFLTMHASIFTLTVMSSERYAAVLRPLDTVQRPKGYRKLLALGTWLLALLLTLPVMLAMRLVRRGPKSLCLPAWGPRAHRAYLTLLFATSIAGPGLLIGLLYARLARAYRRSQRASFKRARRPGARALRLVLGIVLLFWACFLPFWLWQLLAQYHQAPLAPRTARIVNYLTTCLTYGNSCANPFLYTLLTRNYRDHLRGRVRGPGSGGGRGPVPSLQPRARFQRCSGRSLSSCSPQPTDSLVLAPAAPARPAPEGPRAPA
Experimental: HEK-293 cell membranes containing stable cloned human and rat GPR-14 (20 ug/assay) were incubated with 200 pM [125I] h-U-II (200 Ci/mmol^−1 in the presence of increasing concentrations of test compounds in DMSO (0.1 nM to 10 uM), in a final incubation volume of 200 ul (20 mM Tris-HCl, 5 mM MgCl2). Incubation was done for 30 minutes at room temperature followed by filtration GF/B filters with Brandel cell harvester. ^125I labeled U-U binding was quantitated by gamma counting. Nonspecific binding was defined by ^1251I U-II binding in the presence of 100 nM of unlabeled human U-II. Analysis of the data was performed by nonlinear least square fitting.

rat-isolated aorta = conditions: cited from earlier work

- melting point: 228 to 229 °C
SMILES: COc1ccc(S(=O)(=O)Nc2ccc(Cl)c(OCCN(C)C)c2)cc1OC [Example 1, N-[4-Chloro-3-(2-dimethylamino-ethoxy)phenyl]-3,4-dimethoxy-benzenesulfonamide]

- Ki [1]: 1.3 µM
SMILES: CN(C)CCOc1cc(NS(=O)(=O)c2ccc(Br)cc2)ccc1I [Example 8, 4-Bromo-N-[4-iodo-3-(2-dimethylamino-ethoxy)-phenyl]-benzenesulfonamide]

SMILES: CC(C)[C@H](NC(=O)[C@@H]1CSSC[C@H](NC(=O)[C@H](CC(=O)O)NC(=O)[C@@H]2CCCN2C(=O)[C@@H](NC(=O)[C@@H](N)CCC(=O)O)[C@@H](C)O)C(=O)N[C@@H](Cc2ccccc2)C(=O)N[C@@H](Cc2c[nH]c3ccccc23)C(=O)N[C@@H](CCCCN)C(=O)N[C@@H](Cc2ccc(O)cc2)C(=O)N1)C(=O)O [Human Urotensin-II]
- contractile activity (rat-isolated aorta): most potent contractile agonist identified to date
